From patent US8476194B2

What was measured:
Assay type in all cases: cell-based
Ustilago maydis = assay: In vitro fungitoxicity assay against Ustilago maydis in copper-minus and copper-plus medium; conditions: 1 μg/mL, calculated with Colby formula
Phytophthora capsici = assay: In vitro fungitoxicity assay against Phytophthora capsici in copper-minus AS and copper-plus AS medium
[1] = test system: Leptosphaeria nodorum (LEPTNO); assay: In vitro fungitoxicity assay against Leptosphaeria nodorum (LEPTNO) in copper-minus and copper-plus medium; conditions: CuCl2 10 μM, no test compound, across experiments

Row | Compound | % Inhn. Plus copper Predicted (Ustilago maydis) [%] | % Inhn Plus copper Predicted (Phytophthora capsici; 0.050 μg/mL, calculated with Colby formula) [%] | LEPTNO % Inhn. attributed to copper chloride alone [1] [%] | % Inhn attributed to copper chloride alone (Phytophthora capsici; CuCl2 50 uM, no test compound, across experiments) [%]
1 | C/C(=N\NC(=O)c1ccc(Cl)cc1)c1cc(F)cc(F)c1O [Compound 96] | 53.6 | 7.2 |  | 
2 | [Cl][Cu][Cl] [CuCl2, copper chloride] |  |  | 7.1 ± 6.0 | 4.5 ± 7.9
